# Test results reported in patent US9220746B2, “Compounds and methods for treating bone disorders and controlling weight” (The University of North Carolina at Chapel Hill, priority 2009, dated 2015).
# Entries after “also recorded” stand apart in the source; their conditions may differ.
# Legend:
# Igfbp2−/− mice = assay: MicroCT of femurs and vertebrae (L5) after in vivo treatment of Igfbp2−/− mice; set-up: species or system mouse; conditions: in vivo administration, summary statement
# Procedure: Igfbp2^+/+ and Igfbp2^−/− mice were administered with PBS or PEG-HBD-peptide (50 μg/day) intraperitoneally 5 times per week from 6 to 9 weeks of age. Dual-energy x-ray absorptiometry was performed before the initiation of treatment. Mice were injected with 20 mg/kg calcein intraperitoneally 7 days and 2 days before sample collection.
# Microarchitecture of distal trabecular bone and midshaft cortical bone was analyzed with femurs and vertebrae (L5) by MicroCT (MicroCT40)^10. Approximately 100 slices were measured just proximal to the distal growth plate, with an isotropic pixel size of 12 μm and slice thickness of 12 μm. Midshaft cortical bone thickness was analysis in a similar fashion using approximately 18 slices obtained at the exact midpoint of the femur.
# Igfbp2−/− COBs and BMSCs = assay: In vitro osteoblastogenesis of calvarial osteoblasts and bone marrow stromal cells (ALP, Alizarin Red staining); assay type: cell-based, mouse
# Procedure: FIG. 1. The heparin-binding domain of IGFBP2 enhances osteoblastogenesis in vitro. a. Von Kossa staining was performed using tibia from 8 weeks old Igfbp2^+/+ and Igfbp2^−/− male mouse. b. Calvarial osteoblasts (COBs) were harvested from day 7 old male Igfbp2^+/+ and Igfbp2^−/− male mouse, and treated with osteogenic media in the presence of 2.5% FCS. At day 7, alkaline phosphatase (ALP) staining was performed. c and d. COBs and Bone marrow stromal cells (BMSCs) from Igfbp2^−/− mouse were treated with osteogenic media with pegylated heparin-binding domain peptide (PEG-HBD) in the presence of 10% FCS. ALP staining (day 7) and Alizarin Red staining (day 14) were performed (c). RNA was isolated at day 14 from BMSCs and expression of ALP, osteocalcin (OC) and Runx2 was analyzed by real-time PCR. Figures shown represent at least 3 independent experiments (n=3). Statistical difference was analyzed by student's t test. *; p<0.05.
# FIG. 7. […] Igfbp2^−/− calvarial osteoblasts (COBs) were cultured with osteogenic media with PBS, control peptide (2 μg/ml) or heparin binding domain peptide (HBD-peptide) (2 μg/ml). Osteoblastogenesis was evaluated by Alizarin Red staining.
# Neonatal calvarial osteoblasts were collected from 7-10 day old mice as previously described^53. Briefly, calvariae were digested 5 times with collagenase P and Trypsin. Cells released from digests 2 through 5 were collected as primary calvarial osteoblasts, and maintained in DMEM supplemented with 10% FCS and non-essential amino acids. Osteoblastogenesis of primary calvarial osteoblasts was carried out by treating cells with 4 mM β-glycerophosphate and 50 μg/ml ascorbic acid in αMEM. Bone marrow stromal cells (BMSCs) were harvested from femurs and tibias of 8 weeks old mice as described previously^10. Osteoblastogenesis of BMSCs was induced by the treatment with osteogenic media consisting of αMEM containing 10% FCS, 8 mM β-glycerophosphate, and 50 μg/ml ascorbic acid.
# metacarpals = assay: Metacarpal culture ex vivo (calcein incorporated area, length, width); assay type: cell-based, mouse
# Procedure: FIG. 2. The heparin binding domain of IGFBP2 enhances periosteal expansion of metacarpals ex vivo. Metacarpals were collected from day 1 male mouse, and treated with osteogenic media with IGFBP2 (200 ng/ml) or the heparin-binding domain peptide (HBD-peptide) (2 μg/ml) in the presence or absence of IGF-1 (20 ng/ml) for 10 days. Bones were labeled with calcein (500 ng/ml) and calcein incorporated area was visualized (a) and longitudinal length of calcein incorporated area was quantified (b). Alcian blue and Von Kossa double staining was performed (c) and length and width of metacarpals were quantified (d). Statistical difference was analyzed by ANOVA followed by Bonferroni post-hoc test. Figures shown represent at least 3 independent experiments. Values are expressed as the mean±SEM (n=3-4). ^a; <0.05 vs PBS, ^b; <0.01 vs PBS, ^c; <0.001 vs PBS, ^d; <0.01 vs HBD, ^e; <0.05 vs IGF-I, ^f; <0.05 vs HBD.
# Metacarpals were isolated from Igfbp2^−/− mice at 1-day old and incubated in DMEM containing 0.5% BSA, 50 μg/ml ascorbic acid and 1 mM β-glycerol phosphate for 10 days^54. Stimulants were added to culture media from day 1. At day 10, metacarpals were incubated in media containing calcein (500 ng/ml) for 2 hours for staining of calcium deposition, and images were obtained. Then, bones were fixed with 4% PFA, embedded in paraffin, and processed for Alcian blue and von Kossa double staining.
# IGFBP-2 knockout mice [1] = assay: Body weight and fat mass of IGFBP-2 knockout mice given the heparin binding peptide; assay type: in vivo, mouse; conditions: IGFBP-2 −/− mice, 50 mcg intraperitoneally three days per week, 6 week treatment; for Fat Mass: by MRI
# Procedure: Further experiments have been carried out in which the knockout mice and control animals have been administered the mouse homologue of the heparin binding peptide. The peptide was administered to 8 animals in each group. The knockout animals weighed 30.4±1.5 gm whereas the control animals weighed 25.2±1.1 gm. The knockout animals that received the active peptide weighed 24.9±1.3 gm. […] More importantly when absolute fat mass was analyzed by MRI, highly significant differences were also present. The knockout mice had 6.21±0.76 grams of fat. The control mice had 3.82±0.67 grams and the knockout mice administered the heparin binding peptide had 3.67±0.36 grams. Again these are highly significant differences.
# BP2−/− mice = assay: Flow cytometry of white blood cell populations in peripheral blood; assay type: in vivo, mouse; conditions: BP2−/− male mice, intraperitoneal injection, vs PBS injected controls
# IGFBP-2 knockout mice [2] = assay: Glucose tolerance test in IGFBP-2 knockout mice; assay type: in vivo, mouse; conditions: knockout animals with impaired glucose tolerance; not significantly different from control mice
# [3] = listed as heparin binding peptide
sequence,measurement,setting,value
KHLSLEEPKKLRP (IGFBP-2 heparin binding domain-containing peptide sequence) [HBD-peptide],"bone mass phenotype of Igfbp2−/− mice (trabecular bone mass, osteoblast number)",Igfbp2−/− mice,rescued the low bone mass phenotype
same,"bone mass phenotype of Igfbp2−/− mice (trabecular bone mass, osteoblast number)",Igfbp2−/− mice; listed as HBD,trabecular bone mass was rescued and osteoblast number increased
same,mineralization of Igfbp2−/− COBs (Alizarin Red) compared to PBS,"Igfbp2−/− COBs and BMSCs; 2 μg/ml, osteogenic media",fully active
same,"cell proliferation of osteoblasts and bone marrow stromal cells (alkaline phosphatase, alizarin red staining)",Igfbp2−/− COBs and BMSCs; compared to full length (FL) IGFBP-2 and control peptide,increased cell proliferation
same,bone mineralization phenotype of Igfbp2−/− bone marrow stromal cells and calvarial osteoblasts,"Igfbp2−/− COBs and BMSCs; in vitro, summary statement",rescued the low bone mineralization phenotype
same,calcein incorporated area of metacarpals,"metacarpals; 10 days, IGFBP2 200 ng/ml, peptides 2 μg/ml, IGF-1 20 ng/ml, vs PBS",significantly enhanced
same,width (and length) of metacarpals,"metacarpals; 10 days, IGFBP2 200 ng/ml, peptides 2 μg/ml, vs PBS",increased the width of metacarpals
same,periosteal expansion and growth of Igfbp2−/− metacarpal explants,"metacarpals; ex vivo, summary statement",stimulated periosteal expansion and growth
same,Fat Mass,IGFBP-2 knockout mice [1]; listed as HBD,3.67 ± 0.36 gms
same,Fat Mass,IGFBP-2 knockout mice [1]; [3],3.67±0.36 gms
same,Body Weight,IGFBP-2 knockout mice [1]; listed as HBD,24.9 ± 1.3 gms
same,Body Weight,IGFBP-2 knockout mice [1]; [3],24.9±1.3 gms
same,"percentages of differentiated lymphoid and myeloid cells (monocytes, macrophages, neutrophils) in peripheral blood",BP2−/− mice; listed as HBD,"suppressed the percentages of mature monocytes, macrophages and neutrophils; also recorded: reduced the number of differentiated lymphoid and myeloid cells"
same,"percentages of differentiated lymphoid and myeloid cells (monocytes, macrophages, neutrophils) in peripheral blood",BP2−/− mice; listed as IGFBP-2 heparin binding domain (HBD) peptide,reduced the percentage of macrophages
same,glucose tolerance,IGFBP-2 knockout mice [2],significantly improved
